# Assay results as given in US12516038B2, “Inhibitors of antigen presentation by HLA-DR” (Janssen Pharmaceutica NV, priority 2020, dated 2026).
# pIC50: −log10 of the molar value.
# Legend:
# HLA-DRB1*0401 = HLA-DRB1*0401 (Homo sapiens (Human), UniProt P01903+P01911, A100K/A169T/DEL228-266/F76Y/I96L/K127E/L162R/M171V/N62H/P40V/Q125Y/R42H/S133A/S149N/S66Y/V115G/V209L/W38E); test: HLA-DR4 HTRF assay; type: binding; details: inhibition of loading of Alexa Fluor 647-labeled Cit-CII peptide onto HLA-DR4 (CLIP cleaved)
# Excerpt: (§1) The screening was made through two sets of HLA-DR/peptide-dependent assays: a peptide-dependent Homogeneous Time Resolved Fluorescence (HTRF) binding assay followed by an HLA-DR dependent, peptide-specific T cell functional assay (HLA-DR4-restricted peptide-specific T cell-based assay hybridoma assay). The HTRF binding assay was designed to measure the ability of the small molecule to inhibit the loading of a fluorescently labeled high-affinity peptide onto HLA-DR peptide binding groove. The peptide-specific T cell functional assay assesses T cell activation resulting from proper peptide presentation onto HLA-DR expressed on the surface of the antigen-presenting cells to the T cell and is used to screen compounds able to inhibit such HLA-DR/peptide-dependent T cell activation.
# The HLA-DR4 HTRF assay is based on HTRF technology and designed to measure ability of compounds to prevent loading of high-affinity Alexa Fluor 647-labeled Citrullinated Collagen 111236-1249 peptide (named Cit-CII/AF647, aa1236-1249, LQYM-Cit-ADQAAGGLR; Alexa Fluor 647 dye commercially available from Invitrogen) onto HLA-DRB1*0401. The HTRF assay technology is based on the energy transfer between two fluorophores, a donor and an acceptor, when in close proximity. The HLA-DR4 protein construct was uniquely designed for this assay and has (i) the α and […] subunits fused to human Fc chains and (ii) the invariant chain-associated peptide (CLIP peptide, aa85-101), the universal moderate/low-affinity HLA-DR binder, attached to the beta chain through a HRV3C protease-cleavable linker.
# Because of the low stability of peptide free HLA-DR4 heterodimer, the construct was purified and delivered with CLIP peptide attached to the N-terminal of the β chain. The HLA-DR4 heterodimer was pre-treated with 3 μL HRV3C protease (Novagen E71493-3) (˜2 U/μL) per mg of the cleavable protein to cleave CLIP peptide and incubated overnight (>16 hrs) at 4° C. This method yielded at least 80% cleavage and allowed the CLIP peptide to be potentially exchanged with the fluorescently labeled high affinity cit-CII1236-1249 peptide. A batch of […] protein with CLIP cleaved was prepared for multiple experiments and was stable for several months when stored at 4° C.
# In this assay, anti-human Fc antibody labeled with Tb-Cryptate probe was used as the donor (commercially available from Cisbio—PAb Anti-human IgG-Tb Cryptate, Cat #61HFCTAB) and high affinity peptide Citrullinated CII (cit-CII) labeled with Alexa 647 fluorophore was utilized as the acceptor. Inhibitors of the exchange of the pre-cleaved CLIP peptide for the high affinity cit-CII1236-1249 peptide onto HLA-DRB1*04:01 caused a decrease in HTRF signal as measured by the ratio of the 665 nm/620 nm emitted signal. Screening compounds were robotically pre-dispensed (150 nL, Hummingbird, DigiLab/CyBio AG) onto black, round bottom, nontreated, 1536-well assay plates (Corning #3939), were incubated with 3 nM HLA-DR4 (with CLIP cleaved) plus 1 nM Human IgG-Tb (anti-Fc-Tb) Antibody for 45 min prior to addition of 40 nM Cit-CII peptide labeled with Alexa-647. The negative control was DMSO plus 1 nM Human IgG-Tb (anti-Fc-Tb) Antibody, incubated for 45 minutes before addition of 40 nM Cit-CII peptide labeled with Alexa-647. The positive control was DMSO plus 3 nM HLA-DR4 (with CLIP cleaved) plus 1 nM Human IgG-Tb (anti-Fc-Tb) Antibody with 40 nM Cit-CII peptide labeled with Alexa-647 added after a 45-minute incubation. Plates were centrifuged at 1000 rpm for 1 minute and then incubated at 37° C., at 90% relative humidity for 90 minutes. After incubation, plates were read on a spectrophotometer, the Pherastar FS (BMG Labtech), in HTRF mode. The HTRF ratio as well as percent inhibition was calculated. Curve fitting and IC50 calculation for dose response data was performed by Microsoft Excel, 3DX (Janssen proprietary software) or Graphpad Prism (Graphpad Software, San Diego, CA). […]
# [1] = test system: HLA-DR4 restricted mouse T cell hybridoma line (DR4.CII.36.8) with HLA-DRB1*04:01-expressing Boleth cells; test: HLA-DR4-restricted peptide-specific T cell-based assay (hybridoma assay); details: Mus musculus, T-cell, 6 h, inhibition of IL-2 production, CII259-273 peptide presented by Boleth cells
# Excerpt: as §1
# HLA-DR4-Restricted Peptide-Specific T Cell-Based Assay (Hybridoma Assay)
# The hybridoma assay was used to measure compound inhibition of TL-2 production from an HLA-DR4 restricted mouse T cell hybridoma line (DR4.CII.36.8) that was antigen-specific for collagen II259-273 (CII259-273) peptide when presented with an HLA-DR4 expressing Antigen Presenting Cell (APC) cell line (i.e., Boleth).
# To the HLA-DRB1*04:01-expressing B cell line (Boleth cell line from International Histocompatibility Working Group (IHWG), ref #IHW09031) was presented the collagen II 259-273 peptide (CII259-273, GIAGFKGEQGPKGEP) to mouse T cell hybridoma (DR4.CII.36.8 T cell hybridoma; clone 36.8, expressing a CII259-273-specific, HLA-DRB1*04:01-restricted T cell receptor). Upon proper CII259-273 peptide presentation, the T cell hybridoma was activated and thus produced IL-2 cytokine, whose level in the cell culture supernatant was detected using mouse IL-2 AlphaLISA kit (Perkin Elmer, Cat: AL511F).
# This assay was performed in a 384-well plate (polypropylene V-bottom Greiner bio-one, ref #784075) by: (i) pre-incubation of 20 μL of 1.25 million/mL Boleth cells (25,000 cells) resuspended in DMEM/1% fetal calf serum (FCS; Gibco, ref #16140-071) with 20 μL of 2.5× final concentration of compound of interest in DMEM/1% serum/0.75% DMSO at 37° C. for 1 hr in the incubator, then (ii) 10 μL of 5 million/mL (50,000 cells) DR4.CII.36.8 T cell hybridoma cells resuspended in DMEM/1% FCS was added and incubated for 6 h at 37° C. in the incubator. Supernatant was then collected and mouse IL-2 detected using AlphaLISA kit (ref #AL511F). Compounds were tested in duplicate, with 8-point titration. Mean±SD of AlphaLISA units at each compound concentration was used for compound IC50 calculation. The negative control for this experiment was run without peptide stimulation and used a DMSO vehicle wherein no compound of interest was added. The positive control was run with peptide stimulation and used a DMSO vehicle wherein no compound of interest was added. Both the negative and positive controls were run in 8 replicates each. Curve fitting and IC50 calculation for dose response data was performed by GraphPad software 6 or higher (GraphPad Software, San Diego, CA). Dose response data was plotted versus the log of compound concentration and IC50 was determined using 4-parameter logistic (4-PL) curve fitting.
Structure (SMILES),pIC50 (HLA-DRB1*0401),pIC50 [1]
"Cc1cc([C@H](Oc2ccc3c(c2C)OC(C)(C)CC3=O)c2ccc(C(N)=O)cc2)cc(C)n1 (single isomer, unassigned) [Example 112a, (*R)-4-((2,6-dimethylpyridin-4-yl)((2,2,8-trimethyl-4-oxochroman-7-yl)oxy)methyl)benzamide]",6.12,6.39
"C[C@@H]1CC(=O)c2ccc(O[C@H](c3ccncc3)c3ccc(C(N)=O)cc3)cc2O1 (single isomer, unassigned) [Example 39a, 4-((*S)—(((*R)-2-Methyl-4-oxochroman-7-yl)oxy)(pyridin-4-yl)methyl)benzamide]",5.96,4.85
"NC(=O)c1ccc([C@H](Oc2cc(F)c3c(c2)OCCC3=O)c2ccncc2)cc1 (single isomer, unassigned) [Example 51b, (*S)-4-(((5-Fluoro-4-oxochroman-7-yl)oxy)(pyridin-4-yl)methyl)benzamide]",5.46,4.82
"NC(=O)c1ccc([C@@H](Oc2ccc3c(c2)OCCC3=O)c2ccncc2)c2ccccc12 (single isomer, unassigned) [Example 98b, (*S)-4-(((4-oxochroman-7-yl)oxy)(pyridin-4-yl)methyl)-1-naphthamide]",5.00,< 4.82
"CC(C)c1c(O[C@H](c2ccc(C(N)=O)cc2)c2ccc(C(=O)O)cc2)ccc2c1OCCC2=O (single isomer, unassigned) [Example 108a, (*R)-4-((4-carbamoylphenyl)((8-isopropyl-4-oxochroman-7-yl)oxy)methyl)benzoic acid]",6.07,< 4.82
"Cc1c(O[C@H](c2ccc(F)cc2)c2ccc(C(N)=O)cc2)ccc2c1OCCC2=O (single isomer, unassigned) [Example 66b, (*S)-4-((4-Fluorophenyl)((8-methyl-4-oxochroman-7-yl)oxy)methyl)benzamide]",5.62,< 4.82
"COc1cccc([C@H](Oc2ccc3c(c2)OCCC3=O)c2ccncc2)c1 (single isomer, unassigned) [Example 13a, (*R)-7-((3-methoxyphenyl)(pyridin-4-yl)methoxy)chroman-4-one]",5.70,< 4.82
"Cc1c(O[C@H](c2ccncc2)c2ccc(S(C)(=O)=O)cc2)c(F)cc2c1OCCC2=O (single isomer, unassigned) [Example 104b, (*S)-6-fluoro-8-methyl-7-((4-(methylsulfonyl)phenyl)(pyridin-4-yl)methoxy)chroman-4-one]",6.64,5.96
"NC(=O)c1ccc([C@@H](Oc2ccc3c(c2)OCCC3=O)c2ccncc2N)cc1 (single isomer, unassigned) [Example 27a, (*R)-4-((3-aminopyridin-4-yl)((4-oxochroman-7-yl)oxy)methyl)benzamide]",5.14,4.89
"Cc1c(O[C@H]2CCCc3cc(C(N)=O)ccc32)ccc2c1OCCC2=O (single isomer, unassigned) [Example 123b, (*S)-5-((8-methyl-4-oxochroman-7-yl)oxy)-5,6,7,8-tetrahydronaphthalene-2-carboxamide]",6.24,5.20
"Cc1c(O[C@H]2CCCc3cc(C#N)ccc32)ccc2c1OCCC2=O (single isomer, unassigned) [Example 122b, (*S)-5-((8-methyl-4-oxochroman-7-yl)oxy)-5,6,7,8-tetrahydronaphthalene-2-carbonitrile]",6.03,4.82
"Cc1c(O[C@@H](c2ccc(C(N)=O)cc2)c2ccc(S(C)(=O)=O)cc2)c(F)cc2c1OCCC2=O (single isomer, unassigned) [Example 93b, (*S)-4-(((6-fluoro-8-methyl-4-oxochroman-7-yl)oxy)(4-(methylsulfonyl)phenyl)methyl)benzamide]",6.55,4.85
"O=C1CCOc2cc(O[C@@H](c3ccncc3)c3cccc(O)c3)ccc21 (single isomer, unassigned) [Example 5b, (*S)-7-((3-Hydroxyphenyl)(pyridin-4-yl)methoxy)chroman-4-one]",4.85,5.28
"Cc1c(O[C@H](c2ccc(Cl)cc2)c2ccc(C(N)=O)cn2)ccc2c1OCCC2=O (single isomer, unassigned) [Example 63a, (*R)-6-((4-chlorophenyl)((8-methyl-4-oxochroman-7-yl)oxy)methyl)nicotinamide]",5.80,< 4.82
"Cc1c(O[C@H](c2ccncc2)c2cccc(S(C)(=O)=O)c2)c(F)cc2c1OCCC2=O (single isomer, unassigned) [Example 105a, (*R)-6-fluoro-8-methyl-7-((3-(methylsulfonyl)phenyl)(pyridin-4-yl)methoxy)chroman-4-one]",6.70,< 4.82
"COc1ccc([C@@H](Oc2c(F)cc3c(c2C)OCCC3=O)c2ccncc2)cc1 (single isomer, unassigned) [Example 103a, (*R)-6-fluoro-7-((4-methoxyphenyl)(pyridin-4-yl)methoxy)-8-methylchroman-4-one]",5.54,4.82
"CCCc1c(O[C@H](c2ccncc2)c2ccc(C(N)=O)cc2)ccc2c1OCCC2=O (single isomer, unassigned) [Example 80b, (*S)-4-(((4-Oxo-8-propylchroman-7-yl)oxy)(pyridin-4-yl)methyl)benzamide]",6.02,
